{"source": "patent US20190314382A1", "about": "“COMPOUNDS AND PHARMACEUTICAL COMPOSITIONS THEREOF FOR THE TREATMENT OF INFLAMMATORY DISEASES” (Galapagos NV, priority 2016, published 2019)", "type_in_all_cases": "in vivo, human", "details_in_all_cases": "observed case", "key": {"[1]": {"test_system": "IL-6", "experiment": "Biomarker study in RA subjects: serum IL-6, Luminex 18-Plex", "method": "(§1) Double-blind, placebo-controlled add on study in subjects with moderately to severely active RA who have an inadequate response to MTX (oral or parenteral).\n(§2) 595 subjects randomized to one of 6 dose regimens of Compound 1 (dosed as a [Compound 1:HCl:3H2O]) (3 dose levels administered either once or twice daily) or placebo on top of each subject's stable dose of MTX.\n(§3) Compound 1 (dosed as a [Compound 1:HCl:3H2O]) is dosed for twelve weeks once daily (q.d.) (50 mg, 100 mg or 200 mg) or twice daily (b.i.d.) (25 mg, 50 mg or 100 mg); or placebo.\n(§4) 18 parameters from human serum samples (GM-CSF, IFNγ, IL-1β, IL-2, IL-4, IL-5, IL-6, IL-7, IL-8, IL-10, IL-12 (p70), IL-13, IL-17A, IL-21, IL-23, MIP-1α, MIP-1β and TNF-α) are analyzed on a Luminex Plateform (BioPlex® L200) using a Luminex 18-Plex Kit (Millipore: HSTCMAG-28SK).\n(§5) Coupled beads react with the sample containing the biomarker of interest. […] Phycoerythrin (PE) serves as a fluorescent indicator.\n(§6) The concentration of bead bound analyte is proportional to the MFI (Median Fluorescent Intensity) and back-calculated from interpolation with the calibration curve fitted with a 4 or 5 parameters logistic (4PL or 5PL) regression model selected during method pre-validation.\n(§7) Treatment effect was assessed using an ANCOVA model on the changes from baseline, with factors: treatment, baseline value of the PD marker, geographical region and previous use of biologics."}, "[2]": {"test_system": "IL-13", "experiment": "Biomarker study in RA subjects: serum IL-13, Luminex 18-Plex", "method": "as §1, §2, §3, §4, §5, §6, §7"}, "[3]": {"test_system": "GM-CSF", "experiment": "Biomarker study in RA subjects: serum GM-CSF, Luminex 18-Plex", "method": "as §1, §2, §3, §4, §5, §6, §7"}, "[4]": {"test_system": "IL-7", "experiment": "Biomarker study in RA subjects: serum IL-7, Luminex 18-Plex", "method": "as §1, §2, §3, §4, §5, §6, §7"}, "[5]": {"test_system": "IL-2", "experiment": "Biomarker study in RA subjects: serum IL-2, Luminex 18-Plex", "method": "as §1, §2, §3, §4, §5, §6, §7"}, "[6]": {"test_system": "MIP-1β", "experiment": "Biomarker study in RA subjects: serum MIP-1β, Luminex 18-Plex", "method": "as §1, §2, §3, §4, §5, §6, §7"}, "[7]": {"test_system": "IL-1β", "experiment": "Biomarker study in RA subjects: serum IL-1β, Luminex 18-Plex", "method": "as §1, §2, §3, §4, §5, §6, §7"}, "[8]": {"details": "100 mg bid, Week 12, N = 79, RA subjects on MTX"}, "[9]": {"details": "100 mg qd, Week 4, N = 68, RA subjects on MTX"}, "[10]": {"details": "100 mg qd, Week 12, N = 68, RA subjects on MTX"}, "[11]": {"details": "200 mg qd, Week 4, N = 75, RA subjects on MTX"}, "[12]": {"details": "200 mg qd, Week 12, N = 75, RA subjects on MTX"}, "[13]": {"details": "50 mg bid, Week 4, N = 73, RA subjects on MTX"}, "[14]": {"details": "50 mg bid, Week 12, N = 73, RA subjects on MTX"}, "[15]": {"details": "100 mg bid, Week 4, N = 79, RA subjects on MTX"}}}
{"compound": "O=C(Nc1nc2cccc(-c3ccc(CN4CCS(=O)(=O)CC4)cc3)n2n1)C1CC1", "note": "[Compound 1, cyclopropanecarboxylic acid {5-[4-(1,1-dioxo-thiomorpholin-4-ylmethyl)-phenyl]-[1,2,4]triazolo[1,5-a]pyridin-2yl}-amide]", "values": [{"measurement": "IL-6 Mean change from baseline at Week 12", "setting": "[1]; [8]", "value": -14.1, "unit": "pg/mL"}, {"measurement": "IL-6 Mean change from baseline at Week 4", "setting": "[1]; [9]", "value": -7.0, "unit": "pg/mL"}, {"measurement": "IL-6 Mean change from baseline at Week 12", "setting": "[1]; [10]", "value": -8.0, "unit": "pg/mL"}, {"measurement": "IL-6 Mean change from baseline at Week 4", "setting": "[1]; [11]", "value": -9.6, "unit": "pg/mL"}, {"measurement": "IL-6 Mean change from baseline at Week 12", "setting": "[1]; [12]", "value": -11.2, "unit": "pg/mL"}, {"measurement": "IL-13 Mean change from baseline at Week 4", "setting": "[2]; [13]", "value": -0.6, "unit": "pg/mL"}, {"measurement": "IL-13 Mean change from baseline at Week 12", "setting": "[2]; [14]", "value": -1.1, "unit": "pg/mL"}, {"measurement": "IL-13 Mean change from baseline at Week 4", "setting": "[2]; [15]", "value": -1.5, "unit": "pg/mL"}, {"measurement": "IL-13 Mean change from baseline at Week 12", "setting": "[2]; [8]", "value": -2.9, "unit": "pg/mL"}, {"measurement": "IL-13 Mean change from baseline at Week 4", "setting": "[2]; [9]", "value": -0.6, "unit": "pg/mL"}, {"measurement": "IL-13 Mean change from baseline at Week 12", "setting": "[2]; [10]", "value": -1.5, "unit": "pg/mL"}, {"measurement": "IL-13 Mean change from baseline at Week 4", "setting": "[2]; [11]", "value": -0.9, "unit": "pg/mL"}, {"measurement": "IL-13 Mean change from baseline at Week 12", "setting": "[2]; [12]", "value": -2.2, "unit": "pg/mL"}, {"measurement": "GM-CSF Mean change from baseline at Week 4", "setting": "[3]; [13]", "value": -5.4, "unit": "pg/mL"}, {"measurement": "GM-CSF Mean change from baseline at Week 12", "setting": "[3]; [14]", "value": -14.4, "unit": "pg/mL"}, {"measurement": "GM-CSF Mean change from baseline at Week 4", "setting": "[3]; [15]", "value": -12.4, "unit": "pg/mL"}, {"measurement": "GM-CSF Mean change from baseline at Week 12", "setting": "[3]; [8]", "value": -21.1, "unit": "pg/mL"}, {"measurement": "GM-CSF Mean change from baseline at Week 4", "setting": "[3]; [9]", "value": -9.3, "unit": "pg/mL"}, {"measurement": "GM-CSF Mean change from baseline at Week 12", "setting": "[3]; [10]", "value": -19.5, "unit": "pg/mL"}, {"measurement": "GM-CSF Mean change from baseline at Week 4", "setting": "[3]; [11]", "value": -8.4, "unit": "pg/mL"}, {"measurement": "GM-CSF Mean change from baseline at Week 12", "setting": "[3]; [12]", "value": -15.0, "unit": "pg/mL"}, {"measurement": "IL-7 Mean change from baseline at Week 4", "setting": "[4]; [13]", "value": -1.8, "unit": "pg/mL"}, {"measurement": "IL-7 Mean change from baseline at Week 12", "setting": "[4]; [14]", "value": -2.6, "unit": "pg/mL"}, {"measurement": "IL-7 Mean change from baseline at Week 4", "setting": "[4]; [15]", "value": -2.7, "unit": "pg/mL"}, {"measurement": "IL-7 Mean change from baseline at Week 12", "setting": "[4]; [8]", "value": -3.0, "unit": "pg/mL"}, {"measurement": "IL-7 Mean change from baseline at Week 4", "setting": "[4]; [9]", "value": -0.4, "unit": "pg/mL"}, {"measurement": "IL-7 Mean change from baseline at Week 12", "setting": "[4]; [10]", "value": -1.2, "unit": "pg/mL"}, {"measurement": "IL-7 Mean change from baseline at Week 4", "setting": "[4]; [11]", "value": -2.5, "unit": "pg/mL"}, {"measurement": "IL-7 Mean change from baseline at Week 12", "setting": "[4]; [12]", "value": -3.3, "unit": "pg/mL"}, {"measurement": "IL-2 Mean change from baseline at Week 4", "setting": "[5]; [13]", "value": -0.2, "unit": "pg/mL"}, {"measurement": "IL-2 Mean change from baseline at Week 12", "setting": "[5]; [14]", "value": -1.9, "unit": "pg/mL"}, {"measurement": "IL-2 Mean change from baseline at Week 4", "setting": "[5]; [15]", "value": -2.3, "unit": "pg/mL"}, {"measurement": "IL-2 Mean change from baseline at Week 12", "setting": "[5]; [8]", "value": -4.1, "unit": "pg/mL"}, {"measurement": "IL-2 Mean change from baseline at Week 4", "setting": "[5]; [9]", "value": -1.9, "unit": "pg/mL"}, {"measurement": "IL-2 Mean change from baseline at Week 12", "setting": "[5]; [10]", "value": -3.5, "unit": "pg/mL"}, {"measurement": "IL-2 Mean change from baseline at Week 4", "setting": "[5]; [11]", "value": -2.0, "unit": "pg/mL"}, {"measurement": "IL-2 Mean change from baseline at Week 12", "setting": "[5]; [12]", "value": -3.3, "unit": "pg/mL"}, {"measurement": "MIP-1β Mean change from baseline at Week 4", "setting": "[6]; [13]", "value": 0.4, "unit": "pg/mL"}, {"measurement": "MIP-1β Mean change from baseline at Week 12", "setting": "[6]; [14]", "value": -1.1, "unit": "pg/mL"}, {"measurement": "MIP-1β Mean change from baseline at Week 4", "setting": "[6]; [15]", "value": -2.1, "unit": "pg/mL"}, {"measurement": "MIP-1β Mean change from baseline at Week 12", "setting": "[6]; [8]", "value": -1.3, "unit": "pg/mL"}, {"measurement": "MIP-1β Mean change from baseline at Week 4", "setting": "[6]; [9]", "value": -0.7, "unit": "pg/mL"}, {"measurement": "MIP-1β Mean change from baseline at Week 12", "setting": "[6]; [10]", "value": -1.7, "unit": "pg/mL"}, {"measurement": "MIP-1β Mean change from baseline at Week 4", "setting": "[6]; [11]", "value": -1.6, "unit": "pg/mL"}, {"measurement": "MIP-1β Mean change from baseline at Week 12", "setting": "[6]; [12]", "value": -1.5, "unit": "pg/mL"}, {"measurement": "IL-1βb Mean change from baseline at Week 4", "setting": "[7]; [13]", "value": 1.4, "unit": "pg/mL"}, {"measurement": "IL-1βb Mean change from baseline at Week 12", "setting": "[7]; [14]", "value": -0.9, "unit": "pg/mL"}, {"measurement": "IL-1βb Mean change from baseline at Week 4", "setting": "[7]; [15]", "value": -1.0, "unit": "pg/mL"}, {"measurement": "IL-1βb Mean change from baseline at Week 12", "setting": "[7]; [8]", "value": -1.8, "unit": "pg/mL"}, {"measurement": "IL-1βb Mean change from baseline at Week 4", "setting": "[7]; [9]", "value": -0.6, "unit": "pg/mL"}, {"measurement": "IL-1βb Mean change from baseline at Week 12", "setting": "[7]; [10]", "value": -1.2, "unit": "pg/mL"}, {"measurement": "IL-1βb Mean change from baseline at Week 4", "setting": "[7]; [11]", "value": -0.6, "unit": "pg/mL"}, {"measurement": "IL-1βb Mean change from baseline at Week 12", "setting": "[7]; [12]", "value": -1.6, "unit": "pg/mL"}]}
